According to patent US20220273628A1, “EFFECTS OF LYSERGIC ACID DIETHYLAMIDE (LSD) AND OF LSD ANALOGS TO ASSIST PSY[…] G[…] DISORDER OR OTHER ANXIETY NOT RELATED TO LIFE-T[…]” (Universitätsspital Basel, priority 2021, published 2022):
Entries after “also recorded” stand apart in the source; their conditions may differ.

Key:
[1] = test system: patients with anxiety disorder without somatic illness; test: Randomized, double-blind, placebo-controlled phase II cross-over study of LSD: ratings of anxiety, depression and psychological distress; assay type: in vivo, human
Description: Specifically, in patients with generalized anxiety disorder, LSD or placebo was administered in double-blind manner in two sessions separated by 6 weeks and anxiety, depression and psychological distress were assessed between sessions, 2, 8, and 16 weeks after the second session. Then patients who received LSD crossed over to placebo and vice versa.
The examples study used a double-blind cross-over design with two treatment sequences each lasting 24 weeks (LSD vs. placebo-assisted psychotherapy) and separated by a […] between-sequence period. Order was counter-balanced and random. Each participant served as its own control over the 52-weeks total study duration. Treatment effects are also compared between subjects for the first 24 week study period before the cross-over.
(§1) Each of the four LSD/Placebo sessions lasted 12 hours from 8 AM to 8 PM. Sessions took place in a quiet room at the Ambulatory Study Center of the University Hospital Basel (Basel center) or in the private practice office of Dr. P. Gasser (Solothurn center). At the beginning of the session, current mood and mental state were discussed and a urine drug screen was taken and any AEs since the last visit were recorded. Any open questions or concerns were addressed by the investigator. The participants were advised to lie in a bed or sit comfortably on a chair. Other than going to the bathroom, the participants remained in the treatment room for the entire 12-hour experimental session and were supervised constantly up to 8-12 hours after LSD/placebo administration depending on the participant's response and as needed. The subjective effects of LSD at the dose used in this study were expected to last 8-12 hours (Gasser et al., 2014; Holze et al., 2021; Schmid et al., 2015). […] During the LSD/placebo effect, the participants were instructed to focus their awareness inward. Subjects were encouraged to wear eye shades during the first hours (or the light was dimmed) as well as to listen to music and discussions/talking much with the investigator were discouraged. Subjects were allowed to remain mostly undisturbed with brief physical contacts every two hours when heart rate and blood pressure were measured. At the end of the sessions, 10-12 hours after LSD/placebo administration, the acute subjective peak effects were retrospectively rated by the participants using the 5D-ASC, SCQ, AMRS, and VASs and the experience was discussed. Ten-twelve hours after LSD/placebo administration the participants were allowed to return to their home with company and supervision provided by the partner, a relative, or a friend. If supervision was not available or if effects persisted, the night was spent at the study site.
The STAI is a widely used self-report instrument for assessing anxiety in adults. It includes separate measures of state and trait anxiety (Spielberger et al., 1983). The STAI evaluates the essential qualities of feelings of apprehension, tension, nervousness, and worry. The STAI differentiates between the temporary condition of state anxiety and the more general and long-standing quality of trait anxiety. The STAI state anxiety subscale asks for feelings at the moment of filling out the questionnaire, and the STAI trait anxiety subscale ask subjects to indicate how they generally view themselves. For both subscales, scores from 20 to 39 represent mild anxiety, and scores from 40 to 59 indicated moderate anxiety, whereas scores from 60 to 80 indicated severe anxiety. Both the state and trait STAI are commonly used as outcome measures in studies in patients with anxiety disorder (Fisher et al., 1999; Laakmann et al., 1998). A global STAI score can be derived by adding up the state and trait anxiety scale scores (range: 40-160 points). Similar to the pilot study both STAI scale scores were used to determine study inclusion at the screening visit (Gasser et al., 2014; Gasser et al., 2015). […]

[2] = test system: patients with anxiety disorder without somatic illness; test: Same phase II study: acute alterations of mind (5D-ASC) and mystical-type effects (MEQ30); assay type: in vivo, human
Description: as §1, with “If supervision was not available or if effects persisted, the night was spent at the study site.” left out
The 5 dimensions of altered states of consciousness (5D-ASC) scale is a visual analog scale consisting of 94 items (Dittrich, 1998; Studerus et al., 2010). […] Each item of the scale was scored on a 0-100 mm VAS. […]

[3] = molecular target: 5-HT2A receptor (Homo sapiens, UniProt P28223); details: cited from earlier work
[4] = test system: dopaminergic D1-3 receptors; details: cited from earlier work
[5] = between-subjects, after the first session, p=0.04
[6] = between-subjects, week 10 (2 weeks after the second dose), p=0.002
[7] = between-subjects, weeks 16 and 24, did not reach statistical significance
[8] = within-subjects, 2 weeks after the second administration, p=0.003

Sequence of 5-HT2A receptor (P28223 whole entry): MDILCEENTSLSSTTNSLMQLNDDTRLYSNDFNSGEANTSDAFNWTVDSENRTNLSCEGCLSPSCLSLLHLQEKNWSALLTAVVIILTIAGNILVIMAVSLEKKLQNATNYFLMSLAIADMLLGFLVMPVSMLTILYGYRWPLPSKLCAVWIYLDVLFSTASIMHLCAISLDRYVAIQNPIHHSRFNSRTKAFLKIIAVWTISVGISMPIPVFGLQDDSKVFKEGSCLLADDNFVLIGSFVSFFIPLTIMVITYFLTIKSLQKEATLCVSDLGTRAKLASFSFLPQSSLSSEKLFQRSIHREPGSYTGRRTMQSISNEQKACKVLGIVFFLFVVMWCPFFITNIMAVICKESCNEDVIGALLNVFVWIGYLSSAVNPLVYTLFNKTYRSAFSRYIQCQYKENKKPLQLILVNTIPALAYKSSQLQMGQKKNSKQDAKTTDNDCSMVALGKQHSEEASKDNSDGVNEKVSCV

CCN(CC)C(=O)[C@@H]1C=C2c3cccc4[nH]cc(c34)C[C@H]2N(C)C1 [LSD, lysergic acid diethylamide]
STAI-S, STAI-T, STAI-G, HDRS, BDI and SCL-90 Global scores compared with baseline ([1]; LSD condition only, 19 patients, 2 weeks after the second treatment session, p=0.006, 0.01, 0.03, 0.02, 0.03): reduced scores on all outcome measures significantly | STAI-S ratings compared with placebo ([1]; between-subjects, first period, week 10 (2 weeks after the second dose), 200 μg per os, p=0.008): significantly reduced | STAI-S ratings compared with placebo ([1]; between-subjects, after the first session, p=0.03): significantly reduced | HDRS scores compared with placebo [1, 5]: already reduced scores | STAI-G ratings compared with placebo [1, 5]: significantly reduced | STAI-T ratings compared with placebo ([1]; between-subjects, week 10 (2 weeks after the second dose), p=0.001): significantly reduced | HDRS scores compared with placebo [1, 6]: significantly reduced | STAI-G ratings compared with placebo [1, 6]: significantly reduced | SCL-90 Global scores compared with placebo ([1]; between-subjects, week 10, p=0.004): significantly reduced | BDI scores compared with placebo ([1]; between-subjects, week 10, p=0.02): significantly reduced | SCL-90 Global compared with placebo ([1]; between-subjects, week 16 and week 24, did not reach statistical significance): remained reduced | STAI-S ratings compared with placebo ([1]; between-subjects, weeks 16 and 24 (8 and 16 weeks after the second dose), did not reach statistical significance): continued to be reduced | STAI-G ratings compared with placebo [1, 7]: continued to be reduced | STAI-T ratings compared with placebo [1, 7]: continued to be reduced | STAI-S symptom score, difference from baseline, compared with placebo ([1]; within-subjects (19 patients), 2 weeks after the second administration, p=0.01): significantly reduced | BDI symptom score, difference from baseline, compared with placebo ([1]; within-subjects, 2 weeks after the second administration, p=0.002): significantly reduced | STAI-G symptom score, difference from baseline, compared with placebo [1, 8]: significantly reduced | STAI-T symptom score, difference from baseline, compared with placebo [1, 8]: significantly reduced | SCL-90 Global symptom score, difference from baseline, compared with placebo ([1]; within-subjects, 2 weeks after the second administration, p=0.004): significantly reduced | HDRS symptom score, difference from baseline, compared with placebo ([1]; within-subjects, 2 weeks after the second administration, p=0.03): significantly reduced | ratings of mystical-type experiences on the MEQ30 questionnaire ([2]; 200 μg vs placebo, similar at first and second session): significantly and strongly increased | alterations in all scales of the 5D-ASC questionnaire ([2]; 200 μg, all p<0.001 vs. placebo, comparable at session 1 and 2): significant and marked alterations | acute effects (5D-ASC) compared with healthy subjects given the same dose ([2]; 200 μg, comparison with Holze et al., 2021): generally greater | activity at the 5-HT2A receptor [3]: partial 5-HT2A receptor agonist; also recorded: agonists | activity at dopaminergic D1-3 receptors [4]: stimulates
